Patent US10487071B2, “Bis-triazole compounds with anti-biofilm and anti-corrosion properties” (Université de Toulon, priority 2015, dated 2019)
Read-outs that look alike come from different tables or passages of the source.

How the values were obtained:
[1] = test system: Pseudoalteromonas lipolytica (TC8); assay: Anti-adhesion test, strain TC8; assay type: cell-based; settings: Pseudoalteromonas lipolytica; for activity at 200 µM: 15 h, read-out: % of adhesion at 200 μM, TC8; for EC50: read-out: EC50 (effective concentration to inhibit 50% of the adhesion), TC8
How it was run: (§1)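 Stationary-phase bacteria grown in VNSS, diluted in artificial sea water and incubated about 15 h with compound at eight concentrations in triplicate, DMSO up to 2%. Adhered cells stained with SYTO 61 (1 μM). EC50 from a sigmoid fit of % inhibition against log concentration.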

[2] = Electrochemical impedance spectroscopy, corrosion inhibition; settings: 200 ppm; mild steel in 1N HCl; EIS
Protocol: The corrosion rates were determined by electrochemical impedance spectroscopy measurements and gravimetry.
The electrochemical measurements were performed on a 273 A potentiostat (EGG/PAR) coupled to a Solartron 1255 frequency response analyser. EIS measurements were carried out with a solution containing 1N HCl in the absence and presence of the tested compound at a concentration of 200 ppm under unstirred conditions, at open circuit potential with a 10 mV rms amplitude perturbation over a 20 mHz-100 kHz frequency range.
EIS data were registered and analysed using Zview software (Scribners Associates, USA).
A conventional three-electrode cell was used. It comprises a platinum foil as auxiliary electrode, a saturated calomel reference electrode (SCE) and a mild steel coupon as the working electrode with a surface area of 15.7 cm^2.
Electrochemical impedance spectroscopic (EIS) studies have been conducted to investigate corrosion inhibition processes of compounds of the invention according to the Electrochemical impedance spectroscopic test method described herein.
The high frequency loop was analyzed in terms of an equivalent circuit involving a parallel combination of Rct and the constant phase element of double layer (CPE). The inhibition efficiency, IE (%), was estimated from the measured Rct values using the following equation: […]

[3] = test system: Pseudoalteromonas ulvae (TC14); assay: Anti-adhesion test, strain TC14; assay type: cell-based; settings: Pseudoalteromonas ulvae; for activity at 200 µM: 15 h; for EC50: read-out: EC50 (effective concentration to inhibit 50% of the adhesion)
How it was run: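 Stationary-phase TC14 cells grown in VNSS, diluted in artificial seawater and incubated with compound at eight concentrations in triplicate (DMSO ≤2%) for about 15 h. Non-adhered bacteria removed and adhered cells quantified by SYTO 61 (1 μM) staining. EC50 derived from sigmoid fit of % inhibition versus log concentration.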

[4] = Gravimetry (weight loss), corrosion inhibition; settings: mild steel in 1N HCl
How it was run: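 Mild steel coupons (2.5×2.0×0.1 cm) immersed in non-de-aerated 1N HCl without or with various inhibitor concentrations, then washed, dried and reweighed; duplicate runs. IE (%) calculated from corrosion rates without (CR^o) and with (CR) inhibitor.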

Paracoccus sp. (4M6) [5] = assay: Anti-adhesion test, strain 4M6; assay type: cell-based; settings: Paracoccus; for activity at 200 µM: 15 h, read-out: % of adhesion at 200 μM, 4M6; for EC50: read-out: EC50 (effective concentration to inhibit 50% of the adhesion), 4M6
How it was run: as §1

[6] = test system: marine bacterial strains (TC14, TC8, 4M6, TC5 and TC11); assay: Toxicity test, summary over the strains; assay type: cell-based; settings: comparison with reference biocides
Text: (§2) In examples 64 and 65, the following marine bacterial strains are used.

Shewanella sp. (TC11) [7] = assay: Anti-adhesion test, strain TC11; assay type: cell-based; settings: for activity at 200 µM: 15 h, strain TC11, read-out: % of adhesion at 200 μM, TC11; for EC50: read-out: EC50 (effective concentration to inhibit 50% of the adhesion), strain TC11
Protocol: (§3) Bacterial strains were grown on Väätänen nine-salts solution (VNSS). When the stationary phase was reached, the bacterial suspension was centrifuged. Cells were then diluted in sterile artificial sea water (ASW) and introduced in microtiter plates (sterile black PS; Nunc, Fisher Scientific, France) with the tested compound (at eight concentrations in three replicates) in the presence of three controls: (i) non-specific staining control, (ii) adhesion control, and (iii) positive control. The maximum percentage of solvent (DMSO 2%) used to dilute the tested compound was also tested in triplicate as additional control. After incubation during an optimized adhesion time (moderately 15 h), non-adhered bacteria were eliminated and adhered cells were quantified after SYTO 61 (1 μM) staining. A percentage of inhibition was calculated per well. A sigmoid dose-response curve was obtained by plotting the percentage of inhibition as a function of the log of tested compound concentration, after mean (n=3) and standard deviation (SD) calculation per triplicate for each concentration. EC50 values were then calculated for each compound.
(§4) Shewanella sp. (TC11) was isolated in June 2010 in the Military Harbor of Toulon (Mediterranean Sea, France) as described in F. Brian-Jaisson, A. Ortalo-Magné, L. Guentas-Dombrowsky, F. Armougom, Y. Blache, M. Molmeret, Microb. Ecol., 2014, 68, 94-110.

Polaribacter sp. (TC5) [8] = assay: Toxicity test, strain TC5; assay type: cell-based; settings: for CC50: read-out: LC50 (necessary concentration to kill 50% of the bacteria)
Text: (§5) Polaribacter sp. (TC5) was isolated in June 2010 in the Military Harbor of Toulon (Mediterranean Sea, France) as described in F. Brian-Jaisson, A. Ortalo-Magné, L. Guentas-Dombrowsky, F. Armougom, Y. Blache, M. Molmeret, Microb. Ecol., 2014, 68, 94-110.

Polaribacter sp. (TC5) [9] = assay: Anti-adhesion test, strain TC5; assay type: cell-based; settings: for activity at 200 µM: 15 h; for EC50: read-out: EC50 (effective concentration to inhibit 50% of the adhesion)
Protocol: as §3, §5

Paracoccus sp. (4M6) [10] = assay: microbe, parasite or virus in culture; settings: for CC50: Paracoccus, read-out: LC50 (necessary concentration to kill 50% of the bacteria), 4M6; for IS: LC50/EC50 (selectivity index), 4M6: strain 4M6
Text: (§6) The anti-adhesion bioassays and toxicity tests are adapted from those disclosed in M. Camps, J.-F. Briand, L. Guentas-Dombrowsky, G. Culioli, A. Bazire and Y. Blache, Mar. Poll.
(§7) After growth on VNSS, bacterial strains were harvested during the exponential phase. The microtiter plates (sterile transparent PS; Nunc, Fisher Scientific) were filled as described in the Anti-adhesion test method using VNSS instead of ASW to allow bacterial growth. The growth was followed by measuring the turbidity (OD600 nm) every hour during 6 or 7 hours. Then, resazurin (50 μM) was added in all the wells, and fluorescence was measured after 2 h to quantify the percent of bacterial viability. The same methodology used with SYTO 61 was applied to calculate a percent of viability after resazurin staining.

[11] = test system: Pseudoalteromonas lipolytica (TC8); assay: microbe, parasite or virus in culture; settings: for CC50: Pseudoalteromonas lipolytica, read-out: LC50 (necessary concentration to kill 50% of the bacteria), TC8; for IS: LC50/EC50 (selectivity index), TC8: strain TC8
Text: as §6, §7

[12] = test system: marine bacterial strains (TC14, TC8, 4M6, TC5 and TC11); assay: Anti-adhesion test, summary over the strains; assay type: cell-based; settings: for EC50 compared with TBTO/ZINEB: comparison with reference biocides
Protocol: as §3, §2

Shewanella sp. (TC11) [13] = assay: Toxicity test, strain TC11; assay type: cell-based
Text: as §4

[14] = test system: Pseudoalteromonas ulvae (TC14); assay: Toxicity test, strain TC14; assay type: cell-based
Text: Pseudoalteromonas ulvae (TC14) was isolated in June 2010 in the Military Harbor of Toulon (Mediterranean Sea, France) as described in F. Brian-Jaisson, A. Ortalo-Magné, L. Guentas-Dombrowsky, F. Armougom, Y. Blache, M. Molmeret, Microb. Ecol., 2014, 68, 94-110.

[15] = read-out: inhibition of the adhesion of at least four marine bacterial strains
[16] = read-out: inhibition of the adhesion of at least two marine bacterial strains

| Structure (SMILES) | activity at 200 µM [1] | EC50 [1] | activity at 200 µM [3] | EC50 [3] | IE % ([4]; 0.1 ppm) | IE % ([4]; 0.3 ppm) | IE % ([4]; 0.5 ppm) | IE % ([4]; 2 ppm) | IE % ([4]; 10 ppm) | activity at 200 µM (Paracoccus sp. (4M6) [5]) | toxicity by LC50 values compared with TBTO/ZINEB [6] | activity at 200 µM (Shewanella sp. (TC11) [7]) | EC50 (Shewanella sp. (TC11) [7]) | IS: LC50/EC50 (selectivity index), TC5 (Polaribacter sp. (TC5) [8]) | CC50 (Polaribacter sp. (TC5) [8]) | activity at 200 µM (Polaribacter sp. (TC5) [9]) | EC50 (Polaribacter sp. (TC5) [9]) | CC50 (Paracoccus sp. (4M6) [10]) | IS: LC50/EC50 (selectivity index), 4M6 (Paracoccus sp. (4M6) [10]) | CC50 [11] | also measured |
| --- | --- | --- | --- | --- | --- | --- | --- | --- | --- | --- | --- | --- | --- | --- | --- | --- | --- | --- | --- | --- | --- |
| CN(C)CCOc1ccc(CCn2cc(CNCc3cn(CCc4ccc(OCCN(C)C)c(Br)c4)nn3)nn2)cc1Br [AS164] | 47.1 ± 1% | 176 ± 3 µM | 40.8 ± 5% | 126 ± 21.5 µM | 57.10% | 90.49% | 89.20% | 92.42% | 97.20% | 51.7 ± 4.3% |  |  |  |  |  |  |  |  |  |  | inhibition efficiency (IE %) from Rct values [2]: around 95%; inhibition efficiency from weight loss experiments ([4]; 25-200 ppm): greater than 97% |
| CN(C)CCOc1c(Br)cc(CCn2cc(-c3ccc(-c4cn(CCc5cc(Br)c(OCCN(C)C)c(Br)c5)nn4)cc3)nn2)cc1Br [SA33, 2-(4-(2-(4-(4-(1-(4-(2-(dimethylamino)ethoxy)-3,5-dibromophenethyl)-1H-1,2,3-triazol-4-yl)phenyl)-1H-1,2,3-triazol-1-yl)ethyl)-2,6-dibromophenoxy)-N,N-dimethylethanamine] | 6.8 ± 4.3% | 42.5 ± 16.9 µM | 6.3 ± 1.3% | 20.4 ± 1.2 µM | 87.08% | 95.37% | 95.89% | 96.25% | 96.03% | 7.4 ± 8.3% | less toxic than ZINEB | 4.4 ± 2.7% | 32 ± 8.1 µM | 4.8 | 92.6 µM | 0.7 ± 0.7% | 19.2 ± 2.1 µM | 126 µM | 11.2 | 199 µM | IS: LC50/EC50 (selectivity index), TC8 [11]: 4.7; EC50 compared with TBTO/ZINEB [12]: comparable to that of ZINEB; inhibition at 200 µM [12, 15]: ≥ 85%; inhibition at 200 µM [12, 16]: ≥ 65%; IS: LC50/EC50 (selectivity index), TC11 (Shewanella sp. (TC11) [13]): 4.2; LC50 (necessary concentration to kill 50% of the bacteria), TC11 (Shewanella sp. (TC11) [13]): 134.8 µM; IS: LC50/EC50 (selectivity index), TC14 [14]: 12.45; LC50 (necessary concentration to kill 50% of the bacteria), TC14 [14]: 254.1 µM; EC50 (Paracoccus sp. (4M6) [5]): 11.3 ± 9.1 µM |
| CN(C)CCCOc1c(Br)cc(CCn2cc(-c3ccc(-c4cn(CCc5cc(Br)c(OCCCN(C)C)c(Br)c5)nn4)cc3)nn2)cc1Br [SA34, 3-(4-(2-(4-(4-(1-(4-(3-(dimethylamino)propoxy)-3,5-dibromophenethyl)-1H-1,2,3-triazol-4-yl)phenyl)-1H-1,2,3-triazol-1-yl)ethyl)-2,6-dibromophenoxy)-N,N-dimethylpropan-1-amine] | 10.2 ± 3.1% | 50.5 ± 10.9 µM | 13 ± 7.7% | 13.1 ± 1 µM | 52.40% | 70.39% | 92.23% | 96.25% | 95.69% | 8.2 ± 3.5% | less toxic than ZINEB | 7 ± 3.12% | 27.2 ± 0.5 µM | 20.5 | 94.3 µM | 7.9 ± 7.3% | 4.6 ± 6.3 µM | 114 µM | 75.7 | 174 µM | IS: LC50/EC50 (selectivity index), TC8 [11]: 3.5; EC50 compared with TBTO/ZINEB [12]: comparable to that of ZINEB; inhibition at 200 µM [12, 15]: ≥ 85%; inhibition at 200 µM [12, 16]: ≥ 65%; IS: LC50/EC50 (selectivity index), TC11 (Shewanella sp. (TC11) [13]): 4.3; LC50 (necessary concentration to kill 50% of the bacteria), TC11 (Shewanella sp. (TC11) [13]): 115.9 µM; IS: LC50/EC50 (selectivity index), TC14 [14]: 10.1; LC50 (necessary concentration to kill 50% of the bacteria), TC14 [14]: 132 µM; EC50 (Paracoccus sp. (4M6) [5]): 1.5 ± 2.1 µM |
